{
  "source": "patent US20070203073A1",
  "about": "(priority 2005, published 2007)",
  "key": {"[1]": {"system": "SARS-CoV S protein", "test": "microbe, parasite or virus in culture", "type": "cell-based"}, "[2]": {"system": "VSV-G", "type": "cell-based"}, "[3]": {"target": "thrombin", "settings": "read-out: Ki, inhibition of thrombin; cited from earlier work"}, "[4]": {"system": "ASLV-A Env", "type": "cell-based"}, "[5]": {"system": "MLV-Amphotropic Env", "type": "cell-based"}, "[6]": {"system": "SARS-CoV S protein", "type": "cell-based"}, "[7]": {"target": "human cathepsin L (Homo sapiens, UniProt P07711)", "sequence (P07711 114-333)": "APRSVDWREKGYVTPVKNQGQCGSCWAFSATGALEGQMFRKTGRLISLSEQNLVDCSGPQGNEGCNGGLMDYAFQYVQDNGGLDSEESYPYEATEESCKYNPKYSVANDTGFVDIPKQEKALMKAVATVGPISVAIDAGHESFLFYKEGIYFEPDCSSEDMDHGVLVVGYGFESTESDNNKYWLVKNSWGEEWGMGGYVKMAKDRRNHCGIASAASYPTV", "type": "biochemical"}, "[8]": {"system": "SARS-CoV (strain Tor2)", "type": "cell-based"}, "[9]": {"target": "T1, caspase 4 (Homo sapiens, UniProt P49662)", "T1 sequence (P49662 81-270 limits assumed)": "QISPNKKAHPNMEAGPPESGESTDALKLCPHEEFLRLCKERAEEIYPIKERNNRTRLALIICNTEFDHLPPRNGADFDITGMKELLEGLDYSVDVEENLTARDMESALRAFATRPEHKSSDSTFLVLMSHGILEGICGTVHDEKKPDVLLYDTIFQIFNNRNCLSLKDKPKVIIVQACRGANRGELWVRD", "T1 sequence (P49662 290-377 limits assumed)": "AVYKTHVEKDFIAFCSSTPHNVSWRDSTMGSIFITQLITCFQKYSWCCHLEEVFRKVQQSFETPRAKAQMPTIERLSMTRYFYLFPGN", "test": "biochemical"}, "[10]": {"target": "T2, caspase 2 (Homo sapiens, UniProt P42575)", "T2 sequence (P42575 170-325 limits assumed)": "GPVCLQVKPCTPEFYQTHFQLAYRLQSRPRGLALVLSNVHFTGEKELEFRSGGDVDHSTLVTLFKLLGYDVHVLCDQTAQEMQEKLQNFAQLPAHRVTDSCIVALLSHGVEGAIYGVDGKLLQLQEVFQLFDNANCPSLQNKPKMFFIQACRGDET", "T2 sequence (P42575 348-452 limits assumed)": "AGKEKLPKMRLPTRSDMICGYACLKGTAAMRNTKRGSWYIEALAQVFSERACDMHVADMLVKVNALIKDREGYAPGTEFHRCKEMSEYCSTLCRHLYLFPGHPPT", "type": "biochemical"}, "[11]": {"target": "T3, caspase 6 (Homo sapiens, UniProt P55212)", "T3 sequence (P55212 24-179 limits assumed)": "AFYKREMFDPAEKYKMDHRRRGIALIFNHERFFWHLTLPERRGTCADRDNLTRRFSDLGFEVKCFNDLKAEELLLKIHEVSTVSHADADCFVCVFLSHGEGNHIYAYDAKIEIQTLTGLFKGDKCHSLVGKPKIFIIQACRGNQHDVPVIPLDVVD", "T3 sequence (P55212 194-293 limits assumed)": "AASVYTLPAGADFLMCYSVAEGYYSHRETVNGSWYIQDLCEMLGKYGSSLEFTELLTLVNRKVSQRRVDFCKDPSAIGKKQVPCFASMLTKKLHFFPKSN", "type": "biochemical"}, "[12]": {"target": "T2, caspase 2", "test": "biochemical"}, "[13]": {"target": "T3, caspase 6", "test": "biochemical"}, "[14]": {"target": "T1, caspase 4", "type": "biochemical"}, "[15]": {"system": "EboV GP glycoprotein", "type": "cell-based"}, "[16]": {"settings": "IC50 against the three caspases (range stated for all)"}},
  "note": "“Also recorded” adds a separate entry of the source. Where a SMILES comes first, the peptide text is derived from it. [ ]: non-standard residue; d: D form. The star is where a group is joined. Sta = CC(C)C[C@H](N)[C@@H](O)CC(=O)O; Isovaleryl = CC(C)CC(=O)*; Cbz = O=C(OCc1ccccc1)*; CH2F = FC*",
  "data": [
    {"compound": "Cl.N", "note": "[ammonium chloride]", "values": [
      {"measurement": "effect on infection mediated by S protein", "setting": "[1]", "value": "dramatically reduced infection"},
      {"measurement": "effect on infection mediated by VSV-G", "setting": "[2]", "value": "dramatically reduced infection"}
    ]},
    {"compound": "N=C(N)c1ccccc1", "note": "[benzamidine]", "values": [
      {"measurement": "Ki", "setting": "[3]", "value": "300 to 1000", "unit": "µM"}
    ]},
    {"compound": "CCCNC(=O)[C@H]1O[C@@H]1C(=O)N[C@H](C(=O)N1CCC[C@H]1C(=O)O)[C@@H](C)CC", "note": "[CA-074]", "values": [
      {"measurement": "effect on infection of HIV-luc(SARS S)", "setting": "[1]", "value": "did not dramatically affect infection"},
      {"measurement": "effect on infection of HIV-luc(VSV-G)", "setting": "[2]", "value": "did not dramatically affect infection"}
    ]},
    {"compound": "CC(=O)N[C@@H](CC(C)C)C(=O)N[C@@H](CC(C)C)C(=O)N[C@H](C=O)CCCNC(=N)N", "note": "[leupeptin]", "values": [
      {"measurement": "effect on ASLV-A Env mediated infection", "setting": "[4]", "value": "no effect"},
      {"measurement": "effect on infection mediated by MLV-Amphotropic Env", "setting": "[5]", "value": "not inhibited"},
      {"measurement": "concentration necessary to achieve 95% inhibition of S protein-mediated entry", "setting": "[1]", "value": 100, "unit": "µg/mL"},
      {"measurement": "inhibition at 10 µg/mL", "setting": "[1]; Severe acute respiratory syndrome coronavirus, HEK-293T, 10 μg/ml, read-out: inhibition of entry mediated by SARS-CoV S protein", "value": "> 95", "unit": "%"},
      {"measurement": "effect on S protein-mediated intervirion fusion (luciferase activity)", "setting": "[6]", "value": "S protein-mediated fusion was lost"},
      {"measurement": "hit in cathepsin L microarray screen", "setting": "[7]", "value": "inhibitors and hits"},
      {"measurement": "effect on infection mediated by VSV-G", "setting": "[2]", "value": "not inhibited"},
      {"measurement": "effect on SARS-CoV replication", "setting": "[8]", "value": "little or no effect"},
      {"measurement": "effect on infection by replication-competent SARS-CoV", "setting": "[8]", "value": "inhibited"}
    ]},
    {"compound": "CC(C)CC(=O)N[C@H](C(=O)N[C@H](C(=O)N[C@@H](CC(C)C)[C@@H](O)CC(=O)N[C@@H](C)C(=O)N[C@@H](CC(C)C)[C@@H](O)CC(=O)O)C(C)C)C(C)C", "note": "[pepstatin] (Isovaleryl-VV[Sta]A[Sta]-OH)", "values": [
      {"measurement": "effect on infection by pseudotypes bearing S protein", "setting": "[1]", "value": "had no effect"},
      {"measurement": "effect on VSV-G mediated infection", "setting": "[2]", "value": "had no effect"}
    ]},
    {"compound": "CC1=NN(c2ccccc2)C(=O)C1=NNc1c(Br)cc(Br)cc1Br", "note": "[compound 1, 5-methyl-2-phenyl-4-[(2,4,6-tribromo-phenyl)-hydrazono]-2,4-dihydro-pyrazol-3-one]", "values": [
      {"measurement": "inhibition", "setting": "[9]", "value": 100, "unit": "%"},
      {"measurement": "IC50", "setting": "[9]; IC50 against caspase 4", "value": "~500", "unit": "µM"},
      {"measurement": "IC50", "setting": "[9]; [16]", "value": "500 to 5000", "unit": "µM"},
      {"measurement": "substrate conversion in microarray screen", "setting": "[10]", "value": "reduced substrate conversion"},
      {"measurement": "substrate conversion in microarray screen", "setting": "[11]", "value": "low substrate conversion"},
      {"measurement": "inhibition", "setting": "[12]", "value": 100, "unit": "%"},
      {"measurement": "IC50", "setting": "[12]; IC50 against caspase 2", "value": "~5000", "unit": "µM"},
      {"measurement": "IC50", "setting": "[12]; [16]", "value": "500 to 5000", "unit": "µM"},
      {"measurement": "inhibition", "setting": "[13]", "value": 100, "unit": "%"},
      {"measurement": "IC50", "setting": "[13]; IC50 against caspase 6", "value": "~5000", "unit": "µM"},
      {"measurement": "IC50", "setting": "[13]; [16]", "value": "500 to 5000", "unit": "µM"},
      {"measurement": "substrate conversion in microarray screen", "setting": "[14]", "value": "reduced substrate conversion"}
    ]},
    {"compound": "aprotinin", "values": [
      {"measurement": "effect on infection by pseudotypes bearing S protein", "setting": "[1]", "value": "had no effect"}
    ]},
    {"compound": "CC(C)C[C@H](NC(=O)[C@H](CC(C)C)NC(=O)[C@H](CC(C)C)NC(=O)OCc1ccccc1)C(=O)CF", "note": "[Z-LLL-FMK, Z-leu-leu-leu-fluoromethyl ketone] (Cbz-Leu-Leu-Leu-CH2F)", "values": [
      {"measurement": "effect on infection of HIV-luc(SARS S)", "setting": "[1]", "value": "efficiently inhibited infection"},
      {"measurement": "effect on infection of HIV-luc(VSV-G)", "setting": "[2]", "value": "but not HIV-luc(VSV-G)"}
    ]},
    {"compound": "CC(C)[C@H](NC(=O)OCc1ccccc1)C(=O)N[C@H](C=O)Cc1ccccc1", "note": "[MDL 28170, Z-Val-Phe-CHO] (Cbz-Val-Phe-aldehyde)", "values": [
      {"measurement": "effect on MLV pseudotype entry", "setting": "[5]", "value": "not inhibited"},
      {"measurement": "effect on SARS CoV S pseudotype entry/infection", "setting": "[1]", "value": "inhibits entry; also recorded: potently and specifically inhibits pseudotype infection"},
      {"measurement": "IC50", "setting": "[1]; read-out: IC50, pseudotype virion entry into cells", "value": "~0.1", "unit": "µM"},
      {"measurement": "effect on EboV GP pseudotype entry/infection", "setting": "[15]", "value": "inhibits entry; also recorded: potently and specifically inhibits pseudotype infection"},
      {"measurement": "hit in cathepsin L microarray screen", "setting": "[7]", "value": "inhibitors and hits"},
      {"measurement": "effect on VSV pseudotype entry", "setting": "[2]", "value": "not inhibited"}
    ]}
  ]
}
